SMILES strings stand for the structures. Entries after “also recorded” stand apart in the source; their conditions may differ.

One series concerns Jurkat cells. The series is described as follows: Cell viability (Annexin V-APC, flow cytometry) in Jurkat cells. The following applies: 24 h. It is filed as cell-based. On the procedure: (§1) A phosphatidylserine exposure was used to determine cell viability. Cells were washed with PBS, pelleted, and then incubated with annexin binding buffer containing Annexin V-APC (Life Technologies) for 15 min in the dark. Then, samples were analyzed by flow cytometry using FACSCanto II and FACSDiva (BD Biosciences, Franklin Lakes, NJ, USA). Data represents the percentage of non - apoptotic cells (Ann -APC-).
(§2) The cytotoxicity of a selection of the synthesized compounds was assessed after 24 hours of treatment in two human cell lines, Jurkat and HEK293T, coming from either tumoral T-cell lymphocytes or non-tumoral embryonic kidney fibroblasts, respectively. […]
(§3) the pro-apoptotic activity was not significant below 10 µM for most compounds in both cell lines, except for 5i, 5k and 5l in both cell lines, as well as 9a in Jurkat and 5e HEK293T cells (Figure S35A-B).
(§4) Moreover, the cytotoxicity of compounds 4d, 5b, 5h, 8, 10, and 12d at a higher concentration (100 µM) was assessed in both cell lines, Jurkat and HEK293T. The cytotoxicity of compounds 5b, 5h, and 12d could not be properly tested as the compounds were not soluble […]
(§5) effects observed for compound 4d in Jurkat cells and compound 8 in HEK293T cells (Figure S35C).
(§6) Figure S35. A) Jurkat and B) HEK293T cells were treated with 1 and 10 µM doses of the corresponding compound for 24 hours. Indicated doses of fluorizoline were used as a positive control of cell death. C) Jurkat and HEK293T cells were treated with 100 µM of the corresponding compound for 24 hours. Viability was measured by flow cytometry, and it is expressed as the mean ± SEM (n = 3) of the percentage of non -apoptotic cells (Ann-APC-). * p < 0.05, ** p < 0.01 *** p < […]
(§7) (1 picture or pasted object on this page, not shown here)

For another series, the system named is HEK293T cells. Nature of the series: Cell viability (Annexin V-APC, flow cytometry) in HEK293T cells. It is filed as cell-based. To be noted: 24 h. On the procedure:
as §1, §2, §3, §4, §5, §6, §7
In general terms: In flow cytometry, cells or beads pass a laser one at a time.

The target in series [1] is T1, aryl hydrocarbon receptor (AhR) (Homo sapiens, UniProt P35869).
T1 construct: AhR-dependent reporter gene activity was determined in human HepG2 cells stably transfected with an XRE; endogenous in cells; host or cells: XRE-HepG2 (human HepG2 hepatoma cells stably carrying an XRE-luciferase plasmid)
T1 sequence (P35869 11-848): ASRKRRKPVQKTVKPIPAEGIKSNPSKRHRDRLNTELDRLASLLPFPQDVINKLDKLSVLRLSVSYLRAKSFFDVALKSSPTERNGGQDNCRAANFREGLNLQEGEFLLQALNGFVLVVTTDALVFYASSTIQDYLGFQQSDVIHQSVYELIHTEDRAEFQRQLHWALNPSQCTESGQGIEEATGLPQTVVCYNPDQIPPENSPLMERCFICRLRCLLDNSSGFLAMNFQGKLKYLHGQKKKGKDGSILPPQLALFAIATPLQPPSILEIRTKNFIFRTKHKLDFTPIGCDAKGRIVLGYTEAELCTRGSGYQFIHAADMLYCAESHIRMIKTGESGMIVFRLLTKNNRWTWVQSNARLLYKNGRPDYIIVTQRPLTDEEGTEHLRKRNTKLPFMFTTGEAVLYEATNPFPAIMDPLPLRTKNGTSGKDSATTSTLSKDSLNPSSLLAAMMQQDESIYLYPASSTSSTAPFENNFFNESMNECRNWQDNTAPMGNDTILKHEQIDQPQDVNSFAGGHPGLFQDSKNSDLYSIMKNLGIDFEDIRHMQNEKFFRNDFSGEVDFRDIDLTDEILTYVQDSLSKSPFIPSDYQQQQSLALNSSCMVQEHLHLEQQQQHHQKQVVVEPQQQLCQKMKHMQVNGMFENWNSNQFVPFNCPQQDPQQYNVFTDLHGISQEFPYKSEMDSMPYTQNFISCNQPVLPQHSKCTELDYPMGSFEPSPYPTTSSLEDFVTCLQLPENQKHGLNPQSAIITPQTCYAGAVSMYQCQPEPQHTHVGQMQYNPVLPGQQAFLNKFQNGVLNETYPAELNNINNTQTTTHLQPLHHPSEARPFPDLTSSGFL
Nature of the series: AhR/XRE-dependent luciferase reporter gene assay in XRE-HepG2 cells. It is filed as cell-based. The following applies: XRE-HepG2 cells, 8 h; unit as in the supplements; read-out: AhR/XRE-dependent luciferase activity EC50. In general terms: In a reporter assay the amount or activity of a reporter protein is the signal.
Description: (f) AhR/XRE-dependent reporter gene activity results (EC50/μM).
Data are shown as mean ± SEM.
The human XRE -HepG2 reporter cell -line was a kind gift of K. Gradin and L. Poellinger (Karolinska Institute, Stockholm,
antibiotic/antimycotic solution, and 0.8 mg/ml G418. All cells were cultivated at 37 °C in a humidified atmosphere containing 5% CO 2.
AhR-dependent reporter gene activity was determined in human HepG2 cells stably transfected with an XRE -harboring luciferase plasmid (XRE-HepG2 cells). […] Luciferase activity was normalized to protein content.

Another series addresses T2, AhR (Homo sapiens, UniProt P35869).
T2 construct: Degradation of endogenous AhR was further confirmed via Western blotting and global proteomics measurements in cells treated with 12b; host or cells: MCF7
T2 sequence (P35869 11-848): T1 sequence (P35869 11-848)
The series is described as follows: Western blot of AhR in MCF7 cells. Format: cell-based. To be noted: 10 µM, 5 h. On the procedure: Figure S30. Agonists induce degradation of AhR.
12b, 12c, and 12d at a concentration of 10 µM for 5h. The numbers on the Blot indicate the signal intensities of the bands relative to the Tubulin bands, normalized to DMSO treatment as quantified with Empiria Studio. […]
Cell culture and treatment […]
MCF7 cells were purchased from ATCC and grown in DMEM with 10% FCS and 1% penicillin/ streptomycin. […]
All cells were cultivated at 37 °C in a humidified atmosphere containing 5% CO 2.
Tapinarof (MedChemExpress, Monmouth Junction, NJ), benzo[a]pyrene (Sigma-Aldrich, Taufkirchen, Germany), TCDD (Amchro, Hattersheim am Main, Germany) and all compounds synthesized in this study were dissolved in dimethyl sulfoxide (DMSO; Roth). […]
Quantitative real-time PCR […]
• CYP1A1: […] (forward (5'>3')); […] (reverse (5'>3')).
• CYP1B1: […] (forward (5'>3')); […] (reverse (5'>3')).
• CCL26: […] (forward (5'>3')); […] (reverse (5'>3')).
• IL-19: […] (forward (5'>3')); […] (reverse (5'>3')).
• CXCL1: […] (forward (5'>3')); […] (reverse (5'>3')).
• β-actin: […] (forward (5'>3')); […] (reverse (5'>3')). […]
The assay was carried out as described earlier. Luciferase activity was normalized to protein content.
SDS-PAGE/Western blot analysis
Cells were lysed in RIPA buffer on ice and subsequently centrifuged for 15 min at 4 °C at maximum speed. Protein samples were separated by 10% and 12% SDS -polyacrylamide gel electrophoresis and blotted onto PVDF (GE Healthcare, Freiburg, Germany) or Nitrocellulose (BioRad #17 04158) membranes. Blots were blocked with 5% skim milk or bovine serum albumin in TBS -Tween-20 (0.1%) for or Intercept® (TBS) Blocking Buffer (LI -COR Biosciences) 1 h at room temperature and subsequently incubated overnight at 4 °C with primary antibodies. Blots were washed and then incubated for 1 h with a 1:5000 dilution of HRP -conjugated secondary antibodies in 5% bovine serum albumin in TBS -Tween-20 (0.1%) or anti-Mouse (Licor, IRDye® 680RD Goat anti -Mouse IgG, 1:10k dilution) or anti-Rabbit secondary antibody (Licor, IRDye® Goat anti -Rabbit IgG, 1:10k dilution) at room temperature. Bands were visualized using WesternBright ECL HRP substrate (Advansta, San Jose, CA) and a C -DiGit Western Blot Scanner (LI -COR Biotechnology, Lincoln, NE) or a Licor Odyssey CLx imager. Primary antibodies used in this study are as follows. AhR (Cat.No. 83200; Cell Signaling Technology, Leiden, The Netherlands). AIP (Cat.No. sc-59730; Santa Cruz Biotechnology, Dallas, TX). Cul4B (Cat.No. abx004735; Abbexa, Houston, TX). GAPDH (Cat.No. 2118; Cell Signaling Technology). Vinculin (Cat.No. 13901, Cell Signaling Technology). α - Tubulin (Abcam, ab7291, 1:10k dilution).
HaCaT-EV and HaCaT-shAhR cells were treated with either vehicle (DMSO) or 10 µM 12d for 0.5 h and 1 h. […]
A general note: Immunoblotting shows a protein as a band on a membrane.

The next series deals with HaCaT cells. Nature of the series: UVA phototoxicity, caspase 3 activity in HaCaT cells. Format: cell-based, human. To be noted: for UVA radiation-induced caspase activity (phototoxicity): HaCaT, 1 h, UVA 5 J/cm2. The procedure: Irradiation with UVA and caspase 3 activity measurement […]
culture media was exchanged with PBS and the cells were sham or UVA (5 J/cm2) irradiated using the BS-02 irradiation chamber (Opsytec Dr. Gröbel, Ettlingen Germany). Media was added to the cells and after 4 h incubation, caspase 3 activity was measured as described previously.[33] Protein quantification was done with the Bio-Rad DC protein assay kit (Bio-Rad Laboratories, Hercules, CA) according to the manufacturer protocol.
We compared the phototoxic potential of five of our test compounds (8, 10, 5b, 5h, 4b) as well as the FDA-approved AhR activator […]
induced caspase activity at a concentration of 100 nM (Figure S36A). At a 10-fold higher concentration (1 µM) two of the test compounds […]
Figure S36. […] For statistical analysis a two-way ANOVA (Tukey post-hoc) was performed and data are shown as mean ± SEM. (*, p ≤ 0.05). […]

Series [2] can be described thus: Solubility in the growing media during cytotoxicity testing. To be noted: concentration of 100 µM. It is filed as physicochemical. The procedure: as §1, §2, §3, §4, §5, §6, §7

On to `Cn1c2ccccc2c2c(C3=C(O)CC(C)(C)CC3=O)c3c(cc21)c1ccccc1n3C` [4d], for which the “cytotoxicity / pro-apoptotic activity at 100 µM” value in the series on Jurkat cells is given as “slight cytotoxic effects”; in the series with HEK293T cells, “minimal pro-apoptotic activity”. The EC50 in series [1] came out at 1310 nM.

With `COc1ccc2[nH]cc(-c3c4[nH]c5ccccc5c4cc4[nH]c5ccccc5c34)c2c1` [5a], on AhR, the AhR receptor proteolysis entry is “induced receptor proteolysis”. The EC50 in series [1] came out at 600 nM.

`Cc1[nH]c2ccccc2c1-c1c2[nH]c3ccc(F)cc3c2cc2[nH]c3ccc(F)cc3c12` [5k]: the AhR receptor proteolysis entry on AhR is recorded as “induced receptor proteolysis”. Besides, the EC50 in series [1] was 2740 nM.

For `CC(=O)Nc1ccccc1C(=O)c1c2[nH]c3ccccc3c2cc2[nH]c3ccccc3c12` [compound 10], the “cytotoxicity / pro-apoptotic activity at 100 µM” value in the series with Jurkat cells and in the series on HEK293T cells was “minimal pro-apoptotic activity” each time. In addition, the “overlap between effective and toxic concentrations” value in the series with HaCaT cells is “minimal overlap”. For the same compound, the “UVA radiation-induced caspase activity (phototoxicity)” value is recorded as “neither tapinarof nor our 6-ICZ compounds enhanced” in the series on HaCaT cells (100 nM) and “did not show any signs of phototoxicity; also recorded: no phototoxicity” in the series with HaCaT cells (1 µM). Besides, the EC50 in series [1] was 260 nM. The “solubility in the growing media” value in series [2] is listed as “slight turbidity”.

On to `Cn1cc(-c2c3[nH]c4ccccc4c3cc3[nH]c4ccccc4c23)c2ccccc21` [5d], for which the AhR receptor proteolysis entry on AhR is recorded as “induced receptor proteolysis”. Also, the EC50 in series [1] turned out to be 380 nM.

(Values after paper PMC12022909, “A Multicomponent Reaction-Based Platform Opens New Avenues in Aryl Hydrocarbon Receptor Modulation” (ACS Central Science, 2025).)
